Source: patent US7413729B2, “Sialic acid permease system” (priority 2005, dated 2008)

Legend:
[1] = system: nontypeable Haemophilus influenzae; conditions: sialic acid 10 uM in plates, inhibitor 0.01-10 μM
Procedure: Assay: Sialic acid 10 uM was incorporated into Brain Heart Infusion plates containing NAD and Hemin. The inhibitor was also added at 0.01 μM, 0.1 μM, 1 μM and 10 μM concentrations. Control plates were simultaneously prepared which lacked inhibitor. Results obtained from these plates represented the 100% sialic acid incorporation The inhibition assay was performed by plating 10^7 nontypeable Haemophilus influenzae onto each plate and allowed them to grow overnight in 5% CO2 at 37° C. After 16 hours, organisms were collected from the plate and separately diluted in distilled water to a density of 0.1 absorbance at 600 nm.
Analysis: These organisms were analyzed for sialic acid incorporation onto the surface of the organism. To accomplish this, one hundred microliters was placed in a microtiter well and allowed to dry overnight in a 37° C. dry incubator. The next day the plates were washed in a microtiter washer and 100 microliters of antibody 3F11 in TBS Tween-20 was placed in each well. Monoclonal antibody 3F11 binds the lactosamine epitope to which the sialic acid is attached. If sialic acid is present, 3F11 will not bind. If sialic acid is absent, 3F11 binds. The plates were then allowed to set at 37° C. in a moist chamber for two hours. The plates were washed and 100 microliters of a mouse anti-IgM phosphatase conjugate was added to each well. The plates was allowed to set in a 37° C. incubator for one hour. The plate was washed, and 100 microliters p-nitrophenol-phosphate was added to each well. The plate was allowed to set for 1 hour and the color reaction was read in a microtiter plate reader at an absorbance of 405 nm.

[2] = system: H. influenzae; assay: Inhibition of sialylation of LOS; assay type: cell-based; conditions: found by the inventors
[3] = system: influenza A neuraminidase; conditions: literature statement; cited from earlier work
[4] = biological target: T1, SiaP (Haemophilus influenzae, UniProt P44542); assay: Biacore surface plasmon resonance, sialic acid binding to SiaP on CM5 sensor chip; parameters: species or system H. influenzae; conditions: for evidence of binding to SiaP: concentrations as high as 100 mM
T1 construct: made in house; host or cells: E. coli (PET15 vector)
T1 sequence (P44542 24-329): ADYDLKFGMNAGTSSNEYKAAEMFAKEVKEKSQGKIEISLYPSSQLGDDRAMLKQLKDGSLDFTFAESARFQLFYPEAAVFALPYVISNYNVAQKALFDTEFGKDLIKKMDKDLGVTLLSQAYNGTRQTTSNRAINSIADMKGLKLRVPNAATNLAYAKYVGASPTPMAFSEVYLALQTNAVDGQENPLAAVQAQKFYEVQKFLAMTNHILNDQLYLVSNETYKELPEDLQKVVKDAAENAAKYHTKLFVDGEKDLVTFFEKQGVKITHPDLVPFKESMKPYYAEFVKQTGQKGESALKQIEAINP
Procedure: Biacore® Analysis: Surface plasmon resonance analysis was performed to measure the affinity of binding of sialic acid to SiaP. These studies were performed on a Biacore® instrument using the CM5 sensor chip. SiaP was bound to the chip and increasing concentrations of sialic acid were introduced into the instrument. […] Increasing concentration of sialic acid up to 50 mM show minimal increase in binding. Based on the calculations from this analysis, an association constant of 1.7×10^7 M was calculated.

[5] = biological target: siaT (Haemophilus influenzae, UniProt P44542); assay: Biacore analysis of Neu5Ac binding to siaT; parameters: species or system H. influenzae; conditions: for binding to siaT: concentrations as high as 200 mM; for binding to siaP (summary statement): restates the Example 3 binding studies
Sequence of siaT (P44542 24-329): as above
From the text: In one embodiment, one can use the Biacore® screening method for molecules that bind to SiaT. Briefly, one uses a Biacore® instrument to measure bimolecular binding, establish a high throughput system to search for molecules which bind to SiaT or SiaP. SiaT expressing a His tag is bound to a sensor NTA chip in the Biacore® instrument. The Biacore® instrument measures binding events on the sensor chip surface, so that the interactant attached to the surface determines the specificity of the analysis. Testing the specificity of an interaction involves simply asking whether different molecules can bind to the immobilized interactant. Binding gives an immediate change in the SPR signal, so that it is directly apparent whether an interaction takes place or not. As sample is passed over the sensor surface, the progress of binding directly reflects the rate at which the interaction occurs. Injection of sample is followed by buffer flow during which the response reflects the rate of dissociation of the complex on the surface. Kinetic rate constants for the binding and dissociation can be obtained by fitting the results to mathematical descriptions of interaction models. Binding affinities can be obtained either from rate constant measurements (the dissociation constant KD is the ratio of the rate constants kd/ka for a 1:1 interaction) or by measuring the steady state level of binding as a function of sample concentration. The rate of binding of an interactant to a given surface is a function of the interactant concentration, so that measurements with the Biacore® instrument can be used to determine concentration of a specific substance in pure solution or in complex mixtures. The selectivity, dynamic range and other assay performance characteristics are determined largely by the choice of binding molecule attached to the surface. Thus, one can rapidly screen large number of candidate molecules for binding to the SiaT and develop information about rate of binding and dissociation constants. Molecules that have a high binding affinity and dissociate poorly are examined as candidates for study of inhibition of ^3H-sialic acid uptake by nontypeable H. influenzae.
The inventors performed Biacore® analysis of Neu5Ac binding to siaT (FIG. 19). […] Binding peaked at 22 mM and calculations estimated the kD of siaT for Neu5Ac to be 1.7×10^−8.

[6] = biological target: T1, SiaP; assay: Isothermal titration calorimetry of SiaP with sialic acid; assay type: binding, H. influenzae; conditions: ITC
Procedure: Calorimetry and Dynamic Light Scattering. Isothermal titration calorimetry (ITC) experiments were performed in order to determine the binding affinity of SiaP for sialic acid. […] Dynamic light scattering (DLS) experiments were performed to determine the hydrodynamic radius of SiaP with and without sialic acid. […] This was verified by two types of experiments. In the first experiment, excess sialic acid was incubated with SiaP for several hours before DLS experiments were performed. In the second, DLS was performed on protein taken from the calorimeter following an ITC experiment.

[7] = biological target: His-tagged siaP (Haemophilus influenzae, UniProt P44542); assay: Binding of 3H-Neu5Ac to His-tagged siaP bound to a nickel affinity resin; parameters: species or system H. influenzae; conditions: three experiments; controls His-tagged luxS resin and resin without protein
Sequence of His-tagged siaP (P44542 24-329): as above
From the text: The inventors also determined whether ^3H-Neu5Ac would bind to His-tagged siaP bound to a nickel affinity resin. […] Two controls are included, the His-tagged luxS protein bound to a nickel affinity resin and nickel affinity with no protein bound to it.

[8] = biological target: T1, SiaP; assay: Binding of 3H-labelled sialic acid to SiaP-Sepharose conjugate; parameters: species or system H. influenzae; conditions: LuxS-Sepharose and Sepharose-only controls
Procedure: SiaP binds sialic acid. SiaP was overexpressed in a PET15 vector and purified to homogeneity from E. coli. It was then crosslinked to Sepharose® beads and the ability of the SiaP-Sepharose® conjugate to bind sialic acid was assessed using ^3H-labelled sialic acid. […] Non-specific binding was not observed in this system as evidenced by the LuxS-Sepharose® and Sepharose®-only controls (FIG. 26).

[9] = system: H. influenzae; conditions: Goon et al. PNAS 100, 3089-3094; cited from earlier work

CC(=O)N[C@H]1[C@H]([C@H](O)[C@H](O)CO)O[C@@](Oc2ccc3c(C)cc(=O)oc3c2)(C(=O)[O-])C[C@@H]1O.O.[Na+] [2′-(4-Methylumbelliferyl)-α-D-N-acetylneuraminic acid sodium salt hydrate]
effect on Neu5Ac incorporation into H. influenzae [1]: did not have any effect

CC(=O)N[C@H]1[C@H]([C@H](O)[C@H](O)CO)OC(O)(C(=O)O)C(F)[C@@H]1O (stereo partly drawn) [3-fluorosialic acid, 3-fluoro-N-acetylneuraminic acid]
inhibition of sialylation of LOS [2]: highly effective | inhibition of influenza A neuraminidase [3]: potent and specific inhibitors | reduction of sialic acid uptake ([1]; NTHi strain 2019, versus no inhibitor): 60%

CC(=O)N[C@H]1[C@H]([C@H](O)[C@H](O)CO)OC(C(=O)O)=C[C@@H]1O [DDNA, N-acetyl-2,3-didehydro-2-deoxyneuraminic acid]
inhibition of influenza A neuraminidase [3]: potent and specific inhibitors

CC(=O)N[C@H]1C(O)O[C@H](CO)[C@@H](O)[C@@H]1O (stereo partly drawn) [N-acetylglucosamine]
evidence of binding to SiaP [4]: no evidence of binding

CC(=O)N[C@@H]1C(O)O[C@H](CO)[C@@H](O)[C@@H]1O (stereo partly drawn) [N-acetylmannosamine]
binding to siaT ([5]; Biacore): no binding | binding to siaP (summary statement) [5]: failed to bind | evidence of binding to SiaP [4]: no evidence of binding

CC(=O)N[C@H]1[C@H]([C@H](O)[C@H](O)CO)OC(O)(C(=O)O)C[C@@H]1O (stereo partly drawn) [Neu5Ac, N-acetylneuraminic acid]
Neu5Ac concentration at which binding peaked ([5]; Biacore, Neu5Ac 10 to 50 mM): 22 mM | Kd ([5]; Biacore, Neu5Ac 10 to 50 mM, estimated by calculation): 17 nM | binding to siaP (summary statement) [5]: extremely high affinity | sialic acid concentration up to which association with SiaP increased ([4]; up to 50 mM minimal further increase): 20 mM | n value calculated from the binding data [6]: always less than one | Kd ([6]; three independent experiments): 130 nM | binding of 3H-Neu5Ac to resin-bound protein [7]: bound only to the resin to which siaT was bound | binding of sialic acid by SiaP-Sepharose [8]: capable of binding sialic acid

CC(=O)N[C@H]1[C@H]([C@H](O)[C@H](O)CO)OC(C(=O)O)=C[C@@H]1N=C(N)N [Relenza]
inhibition of influenza A neuraminidase [3]: potent and specific inhibitors | effect on Neu5Ac incorporation into H. influenzae [1]: did not have any effect

CCCCCCCC(=O)N[C@H]1C([C@H](O)[C@H](O)CO)OC(O)(C(=O)O)C[C@H]1O (stereo partly drawn) [SiaOct]
inhibition of LOS sialylation [9]: inhibitor of LOS sialylation

CCOC(=O)C1=C[C@@H](OC(CC)CC)[C@H](NC(C)=O)[C@@H](N)C1 [Tamiflu]
inhibition of influenza A neuraminidase [3]: potent and specific inhibitors | effect on Neu5Ac incorporation into H. influenzae [1]: did not have any effect

O=C(CO)[C@@H](O)[C@H](O)[C@H](O)CO [fructose]
binding to siaT ([5]; Biacore): no binding

C[C@H](O)[C@@H](O)[C@@H](O)[C@H](O)C=O [fucose]
binding to siaP (summary statement) [5]: failed to bind

O=C[C@H](O)[C@@H](O)[C@@H](O)[C@H](O)CO [galactose]
binding to siaT ([5]; Biacore): no binding | binding to siaP (summary statement) [5]: failed to bind | evidence of binding to SiaP [4]: no evidence of binding

N[C@H]1C(O)O[C@H](CO)[C@@H](O)[C@@H]1O (stereo partly drawn) [glucosamine]
evidence of binding to SiaP [4]: no evidence of binding

O=C[C@H](O)[C@@H](O)[C@H](O)CO [xylose]
binding to siaT ([5]; Biacore): no binding | binding to siaP (summary statement) [5]: failed to bind
